Results from PubChem BioAssay (NCI).
Where “and” joins values, the source holds several entries; their conditions need not be identical. Identical values can stand only once.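 Tested at 5 concentrations; 48 h exposure; 96-well plates; endpoints linearly interpolated, else capped at highest concentration. GI50: concentration for 50% inhibition of growth. The concentration for full growth arrest is given as TGI.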

Assays:
Experiment in all cases: NCI tumour cell line growth inhibition, 48 h; in the data active = GI50 below about 0.43 µM; inactive = the rest
[1] = test system: CCRF-CEM leukemia
[2] = test system: HL-60(TB) leukemia
[3] = test system: MOLT-4 leukemia
[4] = test system: SF-268 CNS
[5] = test system: SK-OV-3 ovarian
[6] = test system: SNB-75 CNS
[7] = test system: SW-620 colon
[8] = test system: HCT-15 colon
[9] = test system: NCI/ADR-RES ovarian
[10] = test system: DU-145 prostate

Cc1[nH]c2ccccc2c1C1Cc2ccccc2N1C(=O)C#Cc1ccc([N+](=O)[O-])cc1 (stereo unspecified)
> 100 µM: TGI [1] | TGI [2] | TGI [3] | TGI [4] | TGI [5] | TGI [6] | TGI [7]

Cn1c(=O)nc2n(-c3cc(C(F)(F)F)cc(C(F)(F)F)c3)c3ccccc3nc-2c1=O
47.1 µM: TGI [6]
> 100 µM: TGI [8] | TGI [2] | TGI [3] | TGI [4] | TGI [5] | TGI [7]

CC(=O)N1CCN(c2ccc(OCC3COC(Cn4ccnc4)(c4ccc(Cl)cc4Cl)O3)cc2)CC1 (stereo unspecified)
> 100 µM: TGI [1] | TGI [8] | TGI [2] | TGI [3] | TGI [5] | TGI [7]

N#CCCN1C/C(=C/c2ccc(Br)cc2)C(=O)/C(=C/c2ccc(Br)cc2)C1
31.4 µM: TGI [6]
> 100 µM: TGI [1] | TGI [2] | TGI [3] | TGI [9]
2.9 µM: TGI [8]
inactive: GI50 [8] 1.07 µM | GI50 [2] 2.55 µM | GI50 [3] 2.85 µM | GI50 [9] 3.47 µM | GI50 [5] 2.93 µM | GI50 [6] 4.35 µM
active: GI50 [1] 0.341 µM
8.1 µM: TGI [5]

COC(=O)C1C(O)C(C(=O)OC)C(C)N(C)C1C (stereo unspecified)
> 100 µM: TGI [1] | TGI [8] | TGI [2] | TGI [3] | TGI [9] | TGI [5] | TGI [7]

Cn1cc(-c2csc(-c3cn(CCCCN4CCCCC4)c4ccccc34)n2)c2cccnc21
3.21 µM: TGI [5]
inactive: GI50 [10] 1.75 µM | GI50 [8] 1.53 µM | GI50 [4] 1.71 µM | GI50 [5] 1.77 µM | GI50 [6] 1.51 µM | GI50 [7] 1.72 µM
3.25 µM: TGI [7]
2.9 µM: TGI [8]
2.99 µM: TGI [6]
3.37 µM: TGI [4]
3.2 µM: TGI [10]

COC(=O)C(=O)C(C(C)=O)C(=O)NCc1ccc(OC)c(OC)c1 (stereo unspecified)
> 100 µM: TGI [1] | TGI [8] | TGI [2] | TGI [3] | TGI [4] | TGI [5] | TGI [6] | TGI [7]

CCOP(=O)(OCC)C(C(=O)OC)C(=O)C(=O)Nc1ccc(Cl)cc1Cl (stereo unspecified)
> 100 µM: TGI [1] | TGI [8] | TGI [2] | TGI [3] | TGI [4] | TGI [5] | TGI [6] | TGI [7]

Cc1ccc(C)c(N2C/C(=N\NC(=O)CC#N)C(c3nc4ccccc4s3)C(=O)C2=O)c1 (stereo unspecified)
> 100 µM: TGI [1] | TGI [8] | TGI [2] | TGI [3] | TGI [4] | TGI [5] | TGI [6] | TGI [7]

O=[N+]([O-])c1cccc(C2=NOC(C3CCCCC3)C2)c1 (stereo unspecified)
> 100 µM: TGI [1] | TGI [8] | TGI [2] | TGI [3] | TGI [4] | TGI [5] | TGI [6] | TGI [7]

COC(=O)C1=COC(C)C2CN3CCc4c([nH]c5ccccc45)C3CC12 (stereo unspecified)
inactive: GI50 [1] 20.1 µM and 50.5 µM | GI50 [10] 33.7 µM and > 100 µM | GI50 [8] 30 µM and > 100 µM | GI50 [2] 17.5 µM and 46.1 µM | GI50 [3] 11 µM and 28.3 µM | GI50 [9] 22.6 µM and > 100 µM | GI50 [7] 22.8 µM and > 100 µM
32.7 µM and > 100 µM: TGI [3]
75.7 µM and > 100 µM: TGI [7]
> 100 µM: TGI [10] | TGI [8] | TGI [9] | TGI [4] | TGI [5]
41.7 µM and > 100 µM: TGI [2]
58.5 µM and > 100 µM: TGI [1]
